Converted amounts (≈) assume the structure as drawn. “And” between values parts separate entries of the source, which are not always exact repeats. Equal entries are not always repeated. “Also recorded” adds a separate entry of the source. Where two headings read alike, the source gives them in different places.
Key:
[1] = test system: Madin-Darby canine kidney (MDCK) cells; assay: Cytotoxicity in MDCK cells; conditions: read-out: CC50 in MDCK cells; pure compounds; 72 h; highest tested 100 μM
[2] = test system: human lung carcinoma cells (A549); assay: Cytotoxicity in A549 cells; conditions: read-out: CC50 in A549 cells; pure compounds; 72 h; highest tested 100 μM
human erythrocytes [3] = test system: human erythrocytes
human erythrocytes [4] = assay: Interference with hemagglutination in the viral HA assay
[5] = test system: NA of S. pneumoniae DSM20566 (precipitated bacterial proteins); assay: Hemagglutination (HA)-based NA inhibition assay, bacterial; format: biochemical, Streptococcus pneumoniae; conditions: pure compounds; total protein of DSM20566; human erythrocytes; highest tested 100 μM
From the text: Inhibition of pneumococcal NAs circumvents hemagglutination.

[6] = Cytotoxicity in MDCK cells; conditions: dog
[7] = Cytotoxicity in A549 cells; conditions: human
[8] = biological target: influenza virus A/WSN/33 NA (Influenza A virus, UniProt P03470); assay: biochemical
influenza virus A/WSN/33 = assay: microbe, parasite or virus in culture; format: cell-based; conditions: read-out: IC50 of CPE assay (A/WSN/33)
[9] = test system: IAV 8178/09 in A549 cells; format: cell-based, Influenza A virus; conditions: 50 µM
human erythrocytes [10] = test system: human erythrocytes; remark: listed apart in the source
in vitro [11] = conditions: dog
in vitro [12] = conditions: human
[13] = test system: human lung carcinoma cells (A549)
[14] = test system: Madin-Darby canine kidney (MDCK) cells
[15] = test system: IAV Jena/8178/2009 (8178/09); assay: microbe, parasite or virus in culture; format: cell-based, Influenza A virus; conditions: 48 h, read-out: IC50 of CPE IAV 8178/09
[16] = test system: S. pneumoniae DSM20566 biofilm; assay: Scanning electron microscopy of pneumococcal biofilm on glass slides; format: cell-based, Streptococcus pneumoniae; conditions: 10 μM, 7 days
[17] = pure compounds, human erythrocytes, 2 h at 4 °C

influenza virus A/WSN/33 NA, sequence (P03470 whole entry, looked up): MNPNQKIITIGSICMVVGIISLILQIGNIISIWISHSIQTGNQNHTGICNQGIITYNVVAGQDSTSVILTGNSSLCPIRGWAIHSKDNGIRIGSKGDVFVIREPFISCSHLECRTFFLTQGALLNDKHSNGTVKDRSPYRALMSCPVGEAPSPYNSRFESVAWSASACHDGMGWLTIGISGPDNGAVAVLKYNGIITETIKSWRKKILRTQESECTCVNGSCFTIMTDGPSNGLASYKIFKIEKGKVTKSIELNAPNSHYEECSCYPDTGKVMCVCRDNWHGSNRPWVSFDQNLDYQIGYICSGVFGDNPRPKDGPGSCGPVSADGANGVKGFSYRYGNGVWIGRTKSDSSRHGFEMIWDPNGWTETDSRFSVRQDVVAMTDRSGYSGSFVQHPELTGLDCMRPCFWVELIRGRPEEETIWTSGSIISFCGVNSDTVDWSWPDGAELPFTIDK

Compound	sample concentrations provoking induction of erythrocyte lysis in bacterial HA assay (human erythrocytes [3])	sample concentrations provoking induction of erythrocyte lysis in viral HA assay (human erythrocytes [4]; [17])	sample concentrations provoking prevention of virus-induced hemagglutination in viral HA assay (human erythrocytes [4]; [17])	MIC in HA assay against S. pneumoniae DSM20566 [5]	CC50 at 72 h [6]	CC50 at 72 h [7]	sample concentrations provoking prevention of virus-induced hemagglutination in viral HA assay (human erythrocytes [4])	IC50 [8]	IC50 (influenza virus A/WSN/33; WSN, MDCK)	sample concentrations provoking induction of erythrocyte lysis in bacterial HA assay (human erythrocytes [3]; human)	viral yield in A549 cells in the presence of NanA of DSM20566 [9]	virus yield in A549 cells in the absence of NanA [9]	CC50 at 72 h (in vitro [11])	CC50 at 72 h (in vitro [12])	sample concentrations provoking induction of erythrocyte lysis in viral HA assay (human erythrocytes [10])	also measured
sanggenon D [Compound 3]	100 µM	31.6 to 100 µM	no	31.6 µM and 31.6 ± 0.00 µM												CC50 [1]: 99 ± 8.7 µM; CC50 [2]: 79.9 ± 11.2 µM
O=c1cc(-c2ccc(O)c(O)c2)oc2cc(O)cc(O)c12 [Compound 15, luteolin]				23.0 ± 11.8 µM (≈ 6.58 µg/mL)	23 ± 0.18 µM	> 100 µM	no	> 100 µM								
CC(C)=CCC/C(C)=C/Cc1c(O)ccc([C@@H]2CC(=O)c3c(O)cc(O)cc3O2)c1O [Compound 5, sanggenol A]				31.6 µM and 31.6 ± 0.00 µM			100 or no	65.5 ± 9.29 µM	35.4 ± 14.6 µM	100 µM	31.8 ± 4.5%	5.1 ± 1.8%	42.1 ± 4.45 µM	> 100 µM		sample concentrations provoking induction of erythrocyte lysis in viral HA assay (human erythrocytes [10]; human): 100 or no
sanggenon G [Compound 4]	31.6 to 100 µM	10 to 100 µM	3.1 to 100 µM	5.4 µM and 5.44 ± 3.95 µM												IC50 (influenza virus A/WSN/33): 15.2 ± 14 µM; CC50 [13]: 72.9 ± 17.2 µM; CC50 [14]: > 100 µM; IC50 ([8]; read-out: IC50 in FL assay (influenza virus A/WSN/33 NA)): 61.7 ± 17.8 µM; IC50 [15]: 8.78 ± 0.89 µM
COc1c(CC=C(C)C)cc([C@@H]2CC(=O)c3c(O)cc(O)cc3O2)cc1CC=C(C)C [Compound 27, abyssinone-V 4'-methyl ether]				7.72 ± 3.53 µM (≈ 3.26 µg/mL)			3.16 to 100 µM	33.1 ± 11.7 µM		31.6 to 100 µM	7.4 ± 1.2%	3.2 ± 1.4%	2.29 ± 0.1 µM	> 100 µM	no	biofilm formation by scanning electron microscopy ([16]; treatment from 3 h after inoculation): completely prevented biofilm formation; also recorded: strong effect; biofilm formation by scanning electron microscopy ([16]; treatment from 6 h after inoculation): no biofilm was formed; biofilm formation by scanning electron microscopy ([16]; treatment from 9 h after inoculation): affected biofilm formation weakly; biofilm formation by scanning electron microscopy ([16]; treatment from 48 h after inoculation): had no effect
O=C1CC(c2ccc(O)c(O)c2)Oc2cc(O)cc(O)c21 (racemic) [Compound 11, (±)-eriodictyol]	no			45.3 ± 30.6 µM (≈ 13.1 µg/mL)	> 100 µM	> 100 µM	no	> 100 µM	68.4 ± 12.9 µM						no	IC50 ([15]; Influenza A virus, MDCK): 78.3 ± 5.72 µM

Reference: PMC4891693, “Discovery of prenylated flavonoids with dual activity against influenza virus and Streptococcus pneumoniae” (Scientific Reports, 2016)
